Tests used:
[1] = tested on: H-Ras-V12 transformed p53−/− MEFs; assay: Tumor formation after implantation of chemotherapy-treated cells in nude mice; assay type: in vivo; settings: fifteen days; for tumor formation: MAPKAP kinase-2 siRNA-transfected cells pre-treated with 1 μM cisplatin or 0.1 μM doxorubicin before implantation; for size and weight of tumors relative to tumors formed by untreated cells: control siRNA-transfected cells pre-treated with 1 μM cisplatin or 0.1 μM doxorubicin before implantation
Experimental: To establish whether the absence of MAPKAP kinase-2 could also enhance the anti-tumorigenic effect of cisplatin or doxorubicin in vivo, we introduced control or MAPKAP kinase-2 siRNAs into H-Ras-V12 transformed p53^−/− MEFs, treated them with either vehicle alone, 1 μM cisplatin or 0.1 μM doxorubicin, and then implanted them into nude mice. Each animal received two injections of MAPKAP kinase-2 siRNA-transfected cells (left flank), and two injections of control siRNA transfected cells (right flank), and tumor formation was assessed at fifteen days. […] In general, the size of the tumors resulting from injection of MAPKAP kinase-2 depleted cells was larger than that from control siRNA-transfected cells (FIGS. 17A, 17B, and 17D).
Murine tumor models. H-Ras-V 12-transformed p53^−/− MEFs were used for in vivo tumor formation assays. Cells were transfected with siRNA oligonucleotides against GFP or murine MAPKAP kinase-2 for forty-eight hours, then mock treated or incubated with 0.1 μM doxorubicin or 1 μM cisplatin for eight hours, washed three times in growth media, three times in PBS, trypsinized, and resuspended at a concentration of 10^7 cells/ml in PBS. 10^6 cells were subcutaneously injected into the flanks of nude mice (Ncr nu/nu, Taconic).

U2OS cells = assay: FACS cell cycle analysis (PI, phospho-histone H3) in U2OS cells; assay type: cell-based, human; settings: MAPKAP kinase-2 depleted U2OS cells; 10 μM drug, nocodazole added three hours later, thirty hours
Experimental: Asynchronous MAPKAP kinase-2 or luciferase shRNA knockdown cells were mock treated or exposed to doxorubicin for thirty hours, and cell cycle progression was monitored by FACS. In one set of experiments, the spindle poison nocodazole was added to the media three hours after addition of doxorubicin, to cause any cells progressing through the cell cycle to arrest in mitosis. DNA content was monitored by PI staining; phospho-histone-H3 staining was used as an indicator of mitotic entry. As shown in the left panels of FIG. 14A, treatment of control luciferase shRNA knockdown cells with doxorubicin led to the accumulation of cells with 4N DNA content, and a lack of phospho-histone-H3 staining in either the absence or presence of nocodazole. The cells expressing the luciferase shRNAs behaved identically to the untransfected doxorubicin-treated control U2OS cell population (FIG. 24B), with the prominent 4N DNA component and the absence of phospho-histone-H3 staining indicative of an intact G2/M checkpoint.
In contrast to the G2/M checkpoint response observed in doxorubicin-treated cells, treatment with the DNA intra-strand cross-linker cisplatin caused U2OS cells to predominantly accumulate in the G1 and S phases of the cell cycle over the subsequent thirty hours (FIG. 24C). RNA interference was used to investigate the role of MAPKAP kinase-2 in this process. […] Strikingly, when nocodazole was added three hours following cisplatin addition, the MAPKAP kinase-2 depleted cells accumulated in a 4N DNA containing peak with ˜42% of the cells staining strongly for phospho-histone H3. Identical results were obtained in cells treated with a second unrelated siRNA sequence against MAPKAP kinase-2.
FACS analysis. UV irradiation was performed at 254 nm (UV-C) using a Stratalinker 2400 (Stratagene). U2OS cells were fixed in 70% ethanol overnight at −20° C., permeabilized with PBS containing 0.2% Triton X-100 for twenty minutes at 4° C., blocked with 2% FBS in PBS, and incubated with 1 μg of anti-phospho-histone H3 per 10^6 cells for sixty minutes on ice. […]

p53−/− MEFs = assay: FACS cell cycle analysis (PI, phospho-histone H3) in p53−/− MEFs; assay type: cell-based, mouse; settings: MK2 depleted p53−/− MEFs; 10 μM drug, nocodazole added three hours later, thirty hours
Experimental: FACS analysis. UV irradiation was performed at 254 nm (UV-C) using a Stratalinker 2400 (Stratagene). U2OS cells were fixed in 70% ethanol overnight at −20° C., permeabilized with PBS containing 0.2% Triton X-100 for twenty minutes at 4° C., blocked with 2% FBS in PBS, and incubated with 1 μg of anti-phospho-histone H3 per 10^6 cells for sixty minutes on ice. Following washing, cells were incubated with FITC-conjugated goat anti-rabbit antibody (diluted 1:500) for thirty minutes on ice, washed, and resuspended in PBS containing 50 μg/ml PI for twenty minutes immediately prior to FACS analysis. Analysis was performed using a Becton Dickinson FACS machine with CellQuest software.
To investigate the molecular mechanisms involved in MK2 dependent responses to DNA lesions, we examined cell cycle profiles of control and MK2 depleted p53^−/− MEFs. Asynchronous MK2- or control knock-down p53^−/− MEFs were mock treated or exposed to doxorubicin for thirty hour, and cell cycle distribution monitored by FACS. In one set of experiments the spindle poison nocodazole was added to the media three hours after addition of doxorubicin, to cause any cells progressing through the cell cycle to arrest in mitosis. DNA content was monitored by PI staining; phospho-histone-H3 staining was used as an indicator of mitotic entry. […]

Row | SMILES | tumor formation [1] | size and weight of tumors relative to tumors formed by untreated cells [1] [%] | cells staining positively for phospho-histone H3 (U2OS cells) [%] | cells staining positively for phospho-histone H3 (p53−/− MEFs) [%]
1 | N.N.[Cl][Pt][Cl] [cisplatin] | completely eliminated the formation of tumors | ~35 | ~42 | ~25
2 | COc1cccc2c1C(=O)c1c(O)c3c(c(O)c1C2=O)C[C@@](O)(C(=O)CO)C[C@@H]3O[C@H]1C[C@H](N)[C@H](O)[C@H](C)O1 [doxorubicin] | completely eliminated the formation of tumors | ~35 | 36.3 | 28.5
